According to patent US20070224154A1, “Methods of reducing skin irritation” (ACCESS BUSINESS GROUP INTERNATIONAL, LLC, priority 2006, published 2007):

Test system: IL-1 alpha secretion by cocultures of fibroblasts and keratinocytes
Assay: IL-1 alpha assay: ELISA of IL-1α secreted by fibroblast/keratinocyte cocultures exposed to a surfactant irritant with botanical added
Format: cell-based, human
Details: hand dishwashing detergent; for Percent IL-1 α Reduction AVG: average of 1%, 0.1%, 0.01%
Description: IL-1 alpha is one cytokine often released near the beginning of the inflammation cascade, which ultimately leads to a human biological response resulting in visible and/or perceptual signs of irritation. Accordingly, by reducing the initial response to an irritant, such as a surfactant, the ultimate damaging reaction can be reduced, prevented, and/or eliminated.
The procedure for conducting IL-1 alpha assays is as follows: Cocultures of fibroblasts and keratinocytes, the primary cell types found in skin, are established using 100,000 fibroblasts and 200,000 keratinocytes per well. These types of cells are those found in the outer layers of the skin exposed to detergent during every day use. An irritant, for example the surfactant package used in a dish detergent (Example 1 below), is then applied to the coculture wells to initiate the production and secretion of pro-inflammatory cytokines by the cells. One such cytokine is human interleukin-1 alpha or IL-1α. In the body, this protein is a key mediator of the host response to infections and various inflammatory challenges. Once produced, IL-1α stimulates production of other pro-inflammatory cytokines and bioactive molecules. Together, these biological molecules send the message that something is wrong and the keratinocytes and fibroblasts need help. This is called the inflammatory response.
The amount of secreted IL-1α is directly related to the intensity of the inflammatory response. In vitro, the concentration of IL-1α secreted by the coculture cells in response to the irritant can be measured via a precise laboratory technique known as an Enzyme Linked Immuno-Sorbent Assay or ELISA. Thus, to test botanical materials for mildness, a lessening of IL-1α secretion, the mildness agents were added with the chemical irritant. When a reduction in IL-1α expression was observed, the mildness agents were successful. Theoretically, there are several mechanisms by which this could have been achieved at the cellular level. Without wishing to be bound to a particular theory or in any way limit the scope of the appended claims or their equivalents, it is presently believed that these mechanisms may include one or more of the following: the mildness agent could block the transcription of the DNA to RNA, translation of the RNA to protein, and/or release of the IL-1α from the cells. […] The mildness agent may also have stopped the cascade after the irritant works on the cell. Whatever the mechanism, the net result is the same. There is less IL-1α released by the cells which correlates to inhibition of events in the inflammatory cascade and ultimately, less inflammation.
These were prepared using a serial dilution technique: 1.0 g botanical was mixed well with 99.0 g dish detergent to give the 1.0% formulation; next, 10.0 g of the 1.0% solution was mixed well with 90.0 g of the dish detergent to give the 0.1% formulation; finally, 10.0 g of the 0.1% solution was mixed well with 90.0 g of the dish detergent to give the 0.01% formulation.

Compound: O=P(O)(O)O[C@H]1[C@H](OP(=O)(O)O)[C@@H](OP(=O)(O)O)[C@H](OP(=O)(O)O)[C@@H](OP(=O)(O)O)[C@H]1OP(=O)(O)O [PHYTIC ACID EXTREME, phytic acid]
- Percent IL-1 α Reduction AVG: 14.16%
- Percent IL-1 α Reduction (botanical 0.01% by weight): 15.01%
- Percent IL-1 α Reduction (botanical 0.1% by weight): 12.56%
- Percent IL-1 α Reduction (botanical 1% by weight): 14.91%

Compound: CC(=O)Oc1c(C)c(C)c2c(c1C)CCC(C)(CCC[C@H](C)CCC[C@H](C)CCCC(C)C)O2 (stereo partly shown) [Vitamin E acetate]
- Percent IL-1 α Reduction AVG: 26.73%
- Percent IL-1 α Reduction (botanical 0.01% by weight): 25.80%
- Percent IL-1 α Reduction (botanical 0.1% by weight): 27.50%
- Percent IL-1 α Reduction (botanical 1% by weight): 26.90%

Compound: CC(C)=CCC[C@](C)(O)[C@@H]1CC=C(C)CC1 [Alpha bisabolol, (−)-α-bisabolol]
- Percent IL-1 α Reduction AVG: 6.67%
- Percent IL-1 α Reduction (botanical 0.01% by weight): 19.00%
- Percent IL-1 α Reduction (botanical 0.1% by weight): 2.00%
- Percent IL-1 α Reduction (botanical 1% by weight): −1.00%

Compound: O=C(/C=C/c1ccc(O)c(O)c1)O[C@H](Cc1ccc(O)c(O)c1)C(=O)O [Rosmarinic Acid]
- Percent IL-1 α Reduction AVG: 28.80%
- Percent IL-1 α Reduction (botanical 0.01% by weight): 34.5%
- Percent IL-1 α Reduction (botanical 0.1% by weight): 31.8%
- Percent IL-1 α Reduction (botanical 1% by weight): 20.1%

Compound: O=C1O[C@H]([C@@H](O)CO)C(O)=C1O [Vitamin C]
- Percent IL-1 α Reduction AVG: 7.33%
- Percent IL-1 α Reduction (botanical 0.01% by weight): 10.30%
- Percent IL-1 α Reduction (botanical 0.1% by weight): 8.50%
- Percent IL-1 α Reduction (botanical 1% by weight): 3.20%

Compound: Vitamin B12
- Percent IL-1 α Reduction AVG: 9.17%
- Percent IL-1 α Reduction (botanical 0.01% by weight): 17.70%
- Percent IL-1 α Reduction (botanical 0.1% by weight): −3.20%
- Percent IL-1 α Reduction (botanical 1% by weight): 13.00%

Compound: Catechin
- Percent IL-1 α Reduction AVG: 17.43%
- Percent IL-1 α Reduction (botanical 0.01% by weight): 19.50%
- Percent IL-1 α Reduction (botanical 0.1% by weight): 24.90%
- Percent IL-1 α Reduction (botanical 1% by weight): 7.90%

Compound: Dimethylsilanol Hyaluronate [AMINO DL-30]
- Percent IL-1 α Reduction AVG: 12.07%
- Percent IL-1 α Reduction (botanical 0.01% by weight): 21.81%
- Percent IL-1 α Reduction (botanical 0.1% by weight): 7.18%
- Percent IL-1 α Reduction (botanical 1% by weight): 7.22%

Compound: Oc1cc(O)c2c(c1)O[C@H](c1ccc(O)c(O)c1)[C@H](O)C2 [Epicatechin]
- Percent IL-1 α Reduction AVG: 29.97%
- Percent IL-1 α Reduction (botanical 0.01% by weight): 26.2%
- Percent IL-1 α Reduction (botanical 0.1% by weight): 22.1%
- Percent IL-1 α Reduction (botanical 1% by weight): 41.6%

Compound: O=C(O[C@@H]1Cc2c(O)cc(O)cc2O[C@@H]1c1cc(O)c(O)c(O)c1)c1cc(O)c(O)c(O)c1 [EGCG, epigallocatechin gallate]
- Percent IL-1 α Reduction AVG: 10.50%
- Percent IL-1 α Reduction (botanical 0.01% by weight): 12.50%
- Percent IL-1 α Reduction (botanical 0.1% by weight): 12.10%
- Percent IL-1 α Reduction (botanical 1% by weight): 6.90%

Compound: Ceramide
- Percent IL-1 α Reduction AVG: 7.73%
- Percent IL-1 α Reduction (botanical 0.01% by weight): −0.60%
- Percent IL-1 α Reduction (botanical 0.1% by weight): 14.70%
- Percent IL-1 α Reduction (botanical 1% by weight): 9.10%

Compound: Dimethiconol Panthenol [D.S.H. C N]
- Percent IL-1 α Reduction AVG: 19.31%
- Percent IL-1 α Reduction (botanical 0.01% by weight): 22.25%
- Percent IL-1 α Reduction (botanical 0.1% by weight): 16.43%
- Percent IL-1 α Reduction (botanical 1% by weight): 19.24%

Compound: CCCCCCCCCCCCCCCCCCOC(=O)[C@@]1(C)CC[C@]2(C)CC[C@]3(C)C(=CC(=O)[C@@H]4[C@@]5(C)CC[C@H](O)C(C)(C)[C@@H]5CC[C@]43C)[C@@H]2C1 [NET-STG, stearyl glycyrrhetinate]
- Percent IL-1 α Reduction AVG: 13.10%
- Percent IL-1 α Reduction (botanical 0.01% by weight): 14.70%
- Percent IL-1 α Reduction (botanical 0.1% by weight): 11.40%
- Percent IL-1 α Reduction (botanical 1% by weight): 13.20%

Compound: glutaurylamidoethyl indole [GLISTIN]
- Percent IL-1 α Reduction AVG: 22.63%
- Percent IL-1 α Reduction (botanical 0.01% by weight): 18.50%
- Percent IL-1 α Reduction (botanical 0.1% by weight): 31.80%
- Percent IL-1 α Reduction (botanical 1% by weight): 17.60%

Compound: CC(C)=CCCC(C)=CCCC(C)=CCO [Farnesol]
- Percent IL-1 α Reduction AVG: 19.10%
- Percent IL-1 α Reduction (botanical 0.01% by weight): 14.50%
- Percent IL-1 α Reduction (botanical 0.1% by weight): 15.50%
- Percent IL-1 α Reduction (botanical 1% by weight): 27.30%

Compound: O=C1O[C@H]([C@@H](O)CO)C([O-])=C1OP(=O)([O-])[O-].O=C1O[C@H]([C@@H](O)CO)C([O-])=C1OP(=O)([O-])[O-].[Mg+2].[Mg+2].[Mg+2] [VC-PMG, Magnesium Ascorbyl Phosphate]
- Percent IL-1 α Reduction AVG: 21.93%
- Percent IL-1 α Reduction (botanical 0.01% by weight): 29.70%
- Percent IL-1 α Reduction (botanical 0.1% by weight): 23.80%
- Percent IL-1 α Reduction (botanical 1% by weight): 12.30%
